Reference: US12497408B2, “Tetracyclic compounds and methods for the treatment of Zika virus infection” (priority 2021, dated 2025)

What follows are compounds tested on ZIKV (assay: ZIKV reporter virus-based antiviral screening on Huh7 cells). Conditions: Zika virus, Huh-7, 48 h, Huh7 cells infected with recombinant luciferase reporter ZIKV (MOI about 0.1), luciferase signal.
Assay type: cell-based, Zika virus
Excerpt: Protocol for ZIKV reporter virus-based antiviral screening on Huh7 cells:
• Human hepatocyte-derived carcinoma cell line (Huh7) 2. Reagents • ViviRen™ Live Cell Substrate (Promega, Cat #E6492) or Nano Glo assay system (Promega: N1130) • White opaque 96-well TC-treated microplates (Corning, Cat #3916) • 96-well Clear V-Bottom TC-treated Microplate (Corning, Cat #3894) • Complete cell culture media: DMEM (Gibco, Cat #10569) supplemented with 10% FBS (HyClone, Cat #SH30071.03IH25-40)+1% MEM Non-Essential Amino Acids Solution 100×(Gibco, Cat #11140050)+1% Penicillin-Streptomycin (10,000 U/mL) (Gibco, Cat #15140122). • Assay media: DMEM media (Gibco, Cat #31053028) supplemented with 2% FBS, 2% GlutaMAX™ Supplement (Gibco Cat #35050061), 1% Sodium Pyruvate solution (Gibco, Cat #11360070), 1% MEM Non-Essential Amino Acids Solution 100× and 1% Penicillin-Streptomycin (10,000 U/mL). • Trypsin-EDTA solution (Gibco, Cat #25200056) 3. Virus • Recombinant ZIKV strain with Renilla luciferase gene (strain FSS-Rlu) or Nano luciferase gene (Strain PRV-Nano, Dakar-Nano) 4. Instruments • BioTek Cytation 5 or other plate-readers for chemiluminescence detection model. • Eppendorf plate centrifuge • Plate shaker • Eppendorf multichannel pipettes Procedures Day 1: Preparation of Cells • Human hepatocyte-derived carcinoma cell line (Huh7) cells were detached from a T-175 flask by using a Trypsin-EDTA solution. The detached cells were suspended in complete culture media in a sterile 50-ml conical tube. • The 50-ml conical tube was centrifuged at 1200×rpm for 3 min at room temperature. • The cells were resuspended in assay media. The cell numbers were counted, and the cells diluted to a density of 3×10^5 cells/ml. • The cells were plated at 50 μl cells per well in White opaque 96-well plates (assay plates). Gently shake the plates to ensure cells to attach to the plate evenly. • The plated cells were incubated in a humidified incubator (37° C. with 5% CO2). Day 2: Infection • 1) Nine serial (2-fold or 3-fold) concentrated compounds were prepared using 90% DMSO solution and DMSO controls in a clear V-bottom 96-well plate (compound plate). • For example:
• 2) The reporter virus stock was diluted to a concentration of 3×10^4 FFU (FFU: focus-forming unit)/ml using the assay media. 200 μl diluted virus per well was aliquoted into a clear V-bottom 96-well plate (mixing plate). • 3) 1 μl above 400×concentrated compound dilutions was added from the compound plate to each well of the mixing plate. The plates were shaken on a plate shaker for 5 min. • 4) 50 μl compound-virus mixture was added into each well of the assay plates (the MOI is about 0.1). The plates were shaken gently by mixing the virus evenly. • An example of the format for assay plate:
• control. • 5) The plates were centrifuged at 1000 rpm for 15 s. • 6) The plates were incubated at 37° C. with 5% CO2 in a humidified incubator for 48 hrs. Day 4: Read Luciferase Signals • 7) The ViviRen™ Live Cell Substrate was diluted in assay media for 3000× folds. 25 μl of diluted substrates was added into each well of the assay plates. • For Nano-Glo assay system, 50 μl diluted substrates (50×fold diluted from the stock in assay buffer) were added. • 8) The plates were incubated at room temperature for 5 min. • 9) Optimally, cell viability is measured using the Promega Cell-titer Glo kit (only used when ZIKV-Rlu was used for infection). • 10) Luciferase signals were read using the Cytation 5 with gain value of 120-150. Data Analysis • a. The luciferase signals from DMSO-treated groups (un-treated controls) were set as 100%. The relative luciferase signals were obtained by normalizing the luciferase signals from each dilution-treated group to that of the controls. • b.
`CC[C@H](C)[C@H](NC(=O)OC)C(=O)N1CC2(CC2)C[C@H]1c1nc(Cl)c(-c2cc3c4c(c2)OCc2cc(-c5[nH]c([C@@H]6CC7(CC7)CN6C(=O)[C@@H](NC(=O)OC)[C@@H](C)CC)nc5Cl)cc(c2-4)OC3)[nH]1` [Compound 60, dimethyl ((2S,2′S,3S,3′S)-((6S,6′S)-((5,10-dihydrochromeno[5,4,3-cde]chromene-2,7-diyl)bis(4-chloro-1H-imidazole-5,2-diyl))bis(5-azaspiro[2.4]heptane-6,5-diyl))bis(3-methyl-1-oxopentane-1,2-diyl))dicarbamate] gave an EC50 of 1.7 nM.
`COC[C@H]1CC[C@@H](c2nc(Cl)c(-c3cc4c5c(c3)OCc3cc(-c6[nH]c([C@@H]7CC[C@H](COC)N7C(=O)[C@@H](NC(=O)OC)C(C)C)nc6Cl)cc(c3-5)OC4)[nH]2)N1C(=O)[C@@H](NC(=O)OC)C(C)C` [Compound 49, dimethyl ((2S,2′S)-((2R,2′R,5S,5′S)-((5,10-dihydrochromeno[5,4,3-cde]chromene-2,7-diyl)bis(4-chloro-1H-imidazole-5,2-diyl))bis(2-(methoxymethyl)pyrrolidine-5,1-diyl))bis(3-methyl-1-oxobutane-1,2-diyl))dicarbamate] was tested, and the EC50 was 1.9 nM.
For `COC(=O)N[C@H](C(=O)N1[C@@H](C)CC[C@H]1c1nc(C(C)C)c(-c2cc3c4c(c2)OCc2cc(-c5[nH]c([C@@H]6CC[C@H](C)N6C(=O)[C@@H](NC(=O)OC)C(C)(C)C(F)(F)F)nc5C(C)C)cc(c2-4)OC3)[nH]1)C(C)(C)C(F)(F)F` [Compound 42, dimethyl ((2S,2′S)-((2S,2′S,5S,5′S)-((5,10-dihydrochromeno[5,4,3-cde]chromene-2,7-diyl)bis(4-isopropyl-1H-imidazole-5,2-diyl))bis(2-methylpyrrolidine-5,1-diyl))bis(4,4,4-trifluoro-3,3-dimethyl-1-oxobutane-1,2-diyl))dicarbamate], the EC50 was 1.9 nM.
With `CCCc1nc([C@@H]2CCCN2C(=O)[C@@H](NC(=O)OC)C(C)C)[nH]c1-c1cc2c3c(c1)OCc1cc(-c4[nH]c([C@@H]5CCCN5C(=O)[C@@H](NC(=O)OC)C(C)C)nc4CCC)cc(c1-3)OC2` [Compound 79, dimethyl ((2S,2′S)-((2S,2′S)-((5,10-dihydrochromeno[5,4,3-cde]chromene-2,7-diyl)bis(4-propyl-1H-imidazole-5,2-diyl))bis(pyrrolidine-2,1-diyl))bis(3-methyl-1-oxobutane-1,2-diyl))dicarbamate] the EC50 was 200 nM.
`CC[C@H](C)[C@H](NC(=O)OC)C(=O)N1C[C@@H](OC)C[C@H]1c1nc(Cl)c(-c2cc3c4c(c2)OCc2cc(-c5[nH]c([C@@H]6C[C@H](OC)CN6C(=O)[C@@H](NC(=O)OC)[C@@H](C)CC)nc5Cl)cc(c2-4)OC3)[nH]1` [Compound 5, dimethyl ((2S,2′S,3S,3′S)-((3S,3′S,5S,5′S)-((5,10-dihydrochromeno[5,4,3-cde]chromene-2,7-diyl)bis(4-chloro-1H-imidazole-5,2-diyl))bis(3-methoxypyrrolidine-5,1-diyl))bis(3-methyl-1-oxopentane-1,2-diyl))dicarbamate] was tested, and the EC50 was 12.4 nM.
`CC[C@H](C)[C@H](NC(=O)OC)C(=O)N1CC(F)(F)C[C@H]1c1nc(Cl)c(-c2cc3c4c(c2)OCc2cc(-c5[nH]c([C@@H]6CC(F)(F)CN6C(=O)[C@@H](NC(=O)OC)[C@@H](C)CC)nc5Cl)cc(c2-4)OC3)[nH]1` [Compound 57, dimethyl ((2S,2′S,3S,3′S)-((5S,5′S)-((5,10-dihydrochromeno[5,4,3-cde]chromene-2,7-diyl)bis(4-chloro-1H-imidazole-5,2-diyl))bis(3,3-difluoropyrrolidine-5,1-diyl))bis(3-methyl-1-oxopentane-1,2-diyl))dicarbamate] showed an EC50 of 4.6 nM.
For `COC(=O)N[C@H](C(=O)N1CC(F)(F)C[C@H]1c1nc(Cl)c(-c2cc3c4c(c2)OCc2cc(-c5[nH]c([C@@H]6CC(F)(F)CN6C(=O)[C@@H](NC(=O)OC)C(C)C)nc5Cl)cc(c2-4)OC3)[nH]1)C(C)C` [Compound 56, dimethyl ((2S,2′S)-((5S,5′S)-((5,10-dihydrochromeno[5,4,3-cde]chromene-2,7-diyl)bis(4-chloro-1H-imidazole-5,2-diyl))bis(3,3-difluoropyrrolidine-5,1-diyl))bis(3-methyl-1-oxobutane-1,2-diyl))dicarbamate], the EC50 was 3.8 nM.
Compound `COC(=O)N[C@H](C(=O)N1[C@@H](C)CC[C@H]1c1ncc(-c2cc3c4c(c2)OCc2cc(-c5[nH]c([C@@H]6CC[C@H](C)N6C(=O)[C@@H](NC(=O)OC)C(C)C)nc5Cl)cc(c2-4)OC3)[nH]1)C(C)C` [Compound 75, methyl ((S)-1-((2S,5S)-2-(4-chloro-5-(7-(2-((2S,5S)-1-((methoxycarbonyl)-L-valyl)-5-methylpyrrolidin-2-yl)-1H-imidazol-5-yl)-5,10-dihydrochromeno[5,4,3-cde]chromen-2-yl)-1H-imidazol-2-yl)-5-methylpyrrolidin-1-yl)-3-methyl-1-oxobutan-2-yl)carbamate] has an EC50 of 9.6 nM.
`CC[C@H](C)[C@H](NC(=O)OC)C(=O)N1CCCC[C@H]1c1nc(Cl)c(-c2cc3c4c(c2)OCc2cc(-c5[nH]c([C@@H]6CCCCN6C(=O)[C@@H](NC(=O)OC)[C@@H](C)CC)nc5Cl)cc(c2-4)OC3)[nH]1` [Compound 14, dimethyl ((2S,2′S,3S,3′S)-((2S,2′S)-((5,10-dihydrochromeno[5,4,3-cde]chromene-2,7-diyl)bis(4-chloro-1H-imidazole-5,2-diyl))bis(piperidine-2,1-diyl))bis(3-methyl-1-oxopentane-1,2-diyl))dicarbamate] showed an EC50 of 4.6 nM.
`CC[C@H](C)[C@H](NC(=O)OC)C(=O)N1CCC[C@H]1c1ncc(-c2cc3c4c(c2)OCc2cc(-c5[nH]c([C@@H]6CCCN6C(=O)[C@@H](NC(=O)OC)[C@@H](C)CC)nc5Cl)cc(c2-4)OC3)[nH]1` [Compound 22, methyl ((2S,3S)-1-((S)-2-(5-(7-(4-chloro-2-((S)-1-((methoxycarbonyl)-L-isoleucyl)pyrrolidin-2-yl)-1H-imidazol-5-yl)-5,10-dihydrochromeno[5,4,3-cde]chromen-2-yl)-1H-imidazol-2-yl)pyrrolidin-1-yl)-3-methyl-1-oxopentan-2-yl)carbamate] was tested, and the EC50 was 14.1 nM.
`CC[C@H](C)[C@H](NC(=O)OC)C(=O)N1CC2(CC2)C[C@H]1c1nc(Cl)c(-c2cc3c4c(c2)OCc2cc(-c5[nH]c([C@@H]6CC7(CC7)CN6C(=O)[C@@H](NC(=O)OC)[C@@H](C)CC)nc5C(C)C)cc(c2-4)OC3)[nH]1` [Compound 16, methyl ((2S,3S)-1-((S)-6-(5-(7-(4-chloro-2-((S)-5-((methoxycarbonyl)-L-isoleucyl)-5-azaspiro[2.4]heptan-6-yl)-1H-imidazol-5-yl)-5,10-dihydrochromeno[5,4,3-cde]chromen-2-yl)-4-isopropyl-1H-imidazol-2-yl)-5-azaspiro[2.4]heptan-5-yl)-3-methyl-1-oxopentan-2-yl)carbamate] was tested, and the EC50 was 2.3 nM.
Work on `COC(=O)N[C@H](C(=O)N1C[C@@H](C)C[C@H]1c1nc(Cl)c(-c2cc3c4c(c2)OCc2cc(-c5[nH]c([C@@H]6C[C@H](C)CN6C(=O)[C@@H](NC(=O)OC)[C@@H](C)OC)nc5Cl)cc(c2-4)OC3)[nH]1)[C@@H](C)OC` [Compound 47, dimethyl ((2S,2′S,3R,3′R)-((3S,3′S,5S,5′S)-((5,10-dihydrochromeno[5,4,3-cde]chromene-2,7-diyl)bis(4-chloro-1H-imidazole-5,2-diyl))bis(3-methylpyrrolidine-5,1-diyl))bis(3-methoxy-1-oxobutane-1,2-diyl))dicarbamate] yielded an EC50 of 16.9 nM.
